# Where a name gives a salt, the structure may show the parent alone.
# What was measured:
# [1] = unlike other mental stimulants such as amphetamines; cited from earlier work
# [2] = solubility in water and ethanol; type: physicochemical
# Protocol: To 50 mls. of boiling water was added 27.2 grams (0.1 mole) of procaine HCl with stirring until completely dissolved. With stirring was added 12.3 grams (0.1 mole) of nicotinic acid. This mixture was heated at the boiling point until clear. The solution was allowed to cool and a white crystalline precipitate formed which was separated in a Buchner funnel and washed twice with […] of cold distilled water. […] In contrast, a 1:1 molar mixture of procaine HCl and nicotinic acid melts at 145°-150° C.
# Into a hot solution of 50 mls of ethanol and 30 mls of water was dissolved 2.72 grams (0.01 mole) of procaine HCl. To this was added 2.44 grams (0.01 mole) of biotin and heat was maintained until the ingredients reacted and the solution cleared. On cooling, crystallization took place easily. White crystalline platelets were filtered, washed and dried.
# plasma cholinesterase = settings: once absorbed; into PABA and DEAE; cited from earlier work
# [3] = hydrochloride salt form; cited from earlier work
# [4] = 1.3-6.5 moles of caffeine per mole of procaine, aqueous solutions; cited from earlier work
compound,measurement,setting,value
"CCN(CC)CCO [DEAE, diethylaminoethanol]",adverse side effects,[1],no adverse side effects such as depression
"CCN(CC)CCOC(=O)c1ccc(N)cc1 [II, 1:1 Complex of Procaine HCl and Nicotinic Acid]",solubility in water and 95% ethanol,[2]; water and 95% ethanol,moderately soluble
"CCN(CC)CCOC(=O)c1ccc(N)cc1 [IV, 1:1 Complex of Procaine HCl and Biotin]",solubility in water and ethanol,[2]; water and ethanol,partly soluble
"CCN(CC)CCOC(=O)c1ccc(N)cc1 [Procaine hydrochloride, procaine hydrochloride]",hydrolysis by plasma cholinesterase,plasma cholinesterase,rapidly hydrolyzed
same,solubility in water,[3],soluble in water
Cn1c(=O)c2c(ncn2C)n(C)c1=O [caffeine],inhibition of procaine hydrolysis,[4],shown to inhibit procaine hydrolysis

# Source: patent US5254686A, “Procaine double salt complexes” (priority 1992, dated 1993)
